Columns and labels:
[1] = target: T1, Trypanothione Synthetase TS (Crithidia fasciculata, UniProt O60993); assay: Inhibition of Trypanothione Synthetase (Table 1); format: biochemical; details: compound concentration not stated for Table 1
T1 sequence (O60993 1-652): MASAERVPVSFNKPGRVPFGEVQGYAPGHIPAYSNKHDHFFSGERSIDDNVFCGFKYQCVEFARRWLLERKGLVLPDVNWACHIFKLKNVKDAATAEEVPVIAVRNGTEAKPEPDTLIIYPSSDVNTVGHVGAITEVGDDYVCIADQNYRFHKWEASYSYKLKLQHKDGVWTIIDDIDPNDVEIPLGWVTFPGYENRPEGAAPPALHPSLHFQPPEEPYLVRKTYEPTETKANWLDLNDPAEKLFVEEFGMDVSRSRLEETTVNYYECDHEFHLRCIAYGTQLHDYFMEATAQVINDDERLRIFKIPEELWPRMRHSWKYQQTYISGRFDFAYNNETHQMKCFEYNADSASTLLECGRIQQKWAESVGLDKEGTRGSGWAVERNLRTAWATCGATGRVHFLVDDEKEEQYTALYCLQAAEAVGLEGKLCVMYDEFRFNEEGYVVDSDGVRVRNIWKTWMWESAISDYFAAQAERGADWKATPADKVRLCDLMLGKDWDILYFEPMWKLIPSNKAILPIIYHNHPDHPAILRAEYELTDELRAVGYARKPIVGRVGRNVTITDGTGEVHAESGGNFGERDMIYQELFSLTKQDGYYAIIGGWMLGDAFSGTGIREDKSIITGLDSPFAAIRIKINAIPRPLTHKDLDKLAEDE

[2] = target: T2, TryS (Crithidia fasciculata, UniProt O60993); assay: Screening of potential inhibitors against TryS (malachite green, A650); format: biochemical; details: 10 µM compound; 90.75 nM TryS, 0.675 mM GSH, 6.75 mM spermidine, 45 µM ATP, room temperature, 60 min; triplicates; read-out: inhibitory effect (%)
T2 sequence (O60993 1-652): T1 sequence (O60993 1-652)
Protocol: The compounds were screened against TryS at 10 µM compound concentration. The inhibitory effect of each compound on TryS was measured in triplicates. Obvious outliers from the triplicates were removed. If the standard deviation of the two remaining inhibition values exceeded 25 % the measurement was repeated.
The screen was performed under the following conditions: 90.75 nM TryS was incubated with 0.675 mM GSH, 6.75 mM spermidine, 45 µM ATP, and 10 µM compound in a total volume of 80 µl 100 mM HEPES pH 7.5, 10 mM MgSO4, 0.1 mM EDTA, 5 mM DTT at room temperature for 60 min. Reaction was stopped by addition of 10 µl malachitgreen reagent. A650 was measured after 20 min. No compound was present in the positive controls (C+). Neither GSH nor spermidine was present in the negative controls (C-).

Inhibition of TS % [1] [%]	inhibition at 10 µM [2] [%]	Compound
20.5		CNCCNC(=O)CN1C(=O)Cc2c([nH]c3ccc(C)cc23)-c2ccccc21 [Compound 24, 2-(9-Methyl-6-oxo-6,7-dihydro-5H-benzo[2,3]azepino[4,5-b]indol-5-yl)-N-(2-methylamino-1-yl-ethyl)-acetamide]
22.5	47.6	NCCCCNCCCNC(=O)CN1C(=O)Cc2c([nH]c3ccc(Br)cc23)-c2ccccc21 [Compound 21, N-(3-(4-Amino-1-yl-butylamino)-1-yl-propyl)-2-(9-bromo-6-oxo-6,7-dihydro-5H-benzo[2,3]azepino[4,5-b]indol-5-yl)-acetamide]
76.5		O=C(CN1C(=O)Cc2c([nH]c3ccc(Br)cc23)-c2ccccc21)N1CCNCC1 [Compound 25, N-[2-(9-Bromo-6-oxo-6,7-dihydro-5H-benzo[2,3]azepino[4,5-b]indol-5-yl)-acetyl]-piperazine]
37.8	85.1	NCCCNC(=O)CN1C(=O)Cc2c([nH]c3ccc(Br)cc23)-c2ccccc21 [Compound 18, N-(3-Amino-1-yl-propyl)-2-(9-bromo-6-oxo-6,7-dihydro-5H-benzo[2,3]azepino[4,5-b]indol-5-yl)-acetamide]
51.7		CNCCNC(=O)CN1C(=O)Cc2c([nH]c3ccc(C#N)cc23)-c2ccccc21 [Compound 22, 2-(9-Cyano-6-oxo-6,7-dihydro-5H-benzo[2,3]azepino[4,5-b]indol-5-yl)-N-(2-methylamino-1-yl-ethyl)-acetamide]
16.2	54.3	NCCCCNC(=O)CN1C(=O)Cc2c([nH]c3ccc(Br)cc23)-c2ccccc21 [Compound 19, N-(4-Amino-1-yl-butyl)-2-(9-bromo-6-oxo-6,7-dihydro-5H-benzo[2,3]azepino[4,5-b]indol-5-yl)-acetamide]
24.6	47.6	NCCCNCCCCNC(=O)CN1C(=O)Cc2c([nH]c3ccc(Br)cc23)-c2ccccc21 [Compound 20, N-(4-(3-Amino-1-yl-propylamino)-1-yl-butyl)-2-(9-bromo-6-oxo-6,7-dihydro-5H-benzo[2,3]azepino[4,5-b]indol-5-yl)-acetamide]
0		CNCCNC(=O)CN1C(=O)Cc2c([nH]c3ccccc23)-c2ccccc21 [Compound 23, N-(2-Methylamino-1-yl-ethyl)-2-(6-oxo-6,7-dihydro-5H-benzo[2,3]azepino[4,5-b]indol-5-yl)-acetamide]
92.4		CNCCNC(=O)CN1C(=O)Cc2c([nH]c3ccc(Br)cc23)-c2ccccc21 [Compound 13, 2-(9-Bromo-6-oxo-6,7-dihydro-5H-benzo[2,3]azepino[4,5-b]indol-5-yl)-N-(2-methylamino-1-yl-ethyl)-acetamide]

Compound	Inhibition of TS % [1] [%]	inhibition at 10 µM [2] [%]
NCCNC(=O)CN1C(=O)Cc2c([nH]c3ccc(Br)cc23)-c2ccccc21 [Compound 17, N-(2-Amino-1-yl-ethyl)-2-(9-bromo-6-oxo-6,7-dihydro-5H-benzo[2,3]azepino[4,5-b]indol-5-yl)-acetamide]	78.6	96.8
2-(9-Bromo-6-oxo-6,7-dihydro-5H-benzo[2,3]azepino[4,5-b]indol-5-yl)-acetic acid hydrazide [Compound 26]	0	

From EP1757607A1, “N5-substituted benzo¬2,3|azepino¬4,5-b|indol-6-ones for treating tropical diseases” (Molisa GmbH, priority 2005, dated 2007)
